Measurements reported in BindingDB's records for doi:10.1016/j.bmcl.2004.10.005 (Bristol Myers Squibb, 2004).

Target: T1, Neuropeptide Y receptor type 1 (Homo sapiens, UniProt P25929)
T1 sequence (P25929 whole entry): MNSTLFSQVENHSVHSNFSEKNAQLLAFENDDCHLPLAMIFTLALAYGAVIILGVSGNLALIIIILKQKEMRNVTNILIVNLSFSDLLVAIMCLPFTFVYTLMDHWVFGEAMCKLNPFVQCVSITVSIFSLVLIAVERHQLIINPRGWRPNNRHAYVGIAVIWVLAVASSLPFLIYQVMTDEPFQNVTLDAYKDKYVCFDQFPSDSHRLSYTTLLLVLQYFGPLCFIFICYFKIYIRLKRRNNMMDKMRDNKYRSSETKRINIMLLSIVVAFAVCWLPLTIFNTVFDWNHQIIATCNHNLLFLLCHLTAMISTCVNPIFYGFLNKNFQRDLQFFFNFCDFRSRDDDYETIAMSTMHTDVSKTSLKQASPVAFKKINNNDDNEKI
Test: Inhibition of binding of [125I]PYY to membranes of SK-N-MC cells expressing the human Y1 receptors

Row | SMILES | IC50 [nM]
1 | COC(=O)C1=C(C)N=C(C)C(C(=O)OC)C1c1cccc(NC(=O)NCCNC2CCN(c3ccccc3C)CC2)c1 (stereo unspecified) [2,6-Dimethyl-4-(3-{3-[2-(1-o-tolyl-piperidin-4-ylamino)-ethyl]-ureido}-phenyl)-1,4-dihydro-pyridine-3,5-dicarboxylic acid dimethyl ester] | 4
2 | COC(=O)C1=C(C)N=C(C)C(C(=O)OC)C1c1cccc(NC(=O)NCCNC2CCN(c3ccccc3)CC2)c1 (stereo unspecified) [2,6-Dimethyl-4-(3-{3-[2-(1-phenyl-piperidin-4-ylamino)-ethyl]-ureido}-phenyl)-1,4-dihydro-pyridine-3,5-dicarboxylic acid dimethyl ester] | 2
3 | COC(=O)C1=C(C)N=C(C)C(C(=O)OC)C1c1cccc(NC(=O)NCCNC2CCN(c3ccccc3SC)CC2)c1 (stereo unspecified) [2,6-Dimethyl-4-[3-(3-{2-[1-(2-methylsulfanyl-phenyl)-piperidin-4-ylamino]-ethyl}-ureido)-phenyl]-1,4-dihydro-pyridine-3,5-dicarboxylic acid dimethyl ester] | 5
4 | COC(=O)C1=C(C)NC(C)=C(C(=O)OC)C1c1cccc(NC(=O)NCCNC2CCN(c3ccccc3[N+](=O)[O-])CC2)c1 [2,6-Dimethyl-4-[3-(3-{2-[1-(2-nitro-phenyl)-piperidin-4-ylamino]-ethyl}-ureido)-phenyl]-1,4-dihydro-pyridine-3,5-dicarboxylic acid dimethyl ester] | 2
5 | COC(=O)C1=C(C)N=C(C)C(C(=O)OC)C1c1cccc(NC(=O)NCCNC2CCN(c3ccccc3C#N)CC2)c1 (stereo unspecified) [4-[3-(3-{2-[1-(2-Cyano-phenyl)-piperidin-4-ylamino]-ethyl}-ureido)-phenyl]-2,6-dimethyl-1,4-dihydro-pyridine-3,5-dicarboxylic acid dimethyl ester] | 3
6 | COC(=O)C1=C(C)N=C(C)C(C(=O)OC)C1c1cccc(NC(=O)NCCNC2CCN(c3cccc(Cl)c3)CC2)c1 (stereo unspecified) [4-[3-(3-{2-[1-(3-Chloro-phenyl)-piperidin-4-ylamino]-ethyl}-ureido)-phenyl]-2,6-dimethyl-1,4-dihydro-pyridine-3,5-dicarboxylic acid dimethyl ester] | 8
7 | COC(=O)C1=C(C)N=C(C)C(C(=O)OC)C1c1cccc(NC(=NC#N)NCCNC2CCN(c3cccc(Cl)c3)CC2)c1 (stereo unspecified) [N-arylpiperazine derivative] | 8
8 | COC(=O)C1=C(C)N=C(C)C(C(=O)OC)C1c1cccc(NC(=NC#N)NCCNC2CCN(c3ccccc3C#N)CC2)c1 (stereo unspecified) [N-arylpiperazine derivative] | 3
9 | COC(=O)C1=C(C)N=C(C)C(C(=O)OC)C1c1cccc(NC(=NC#N)NCCNC2CCN(c3ccccc3C)CC2)c1 (stereo unspecified) [N-arylpiperazine derivative] | 4
10 | COC(=O)C1=C(C)N=C(C)C(C(=O)OC)C1c1cccc(NC(=NC#N)NCCNC2CCN(c3ccccc3SC)CC2)c1 (stereo unspecified) [N-arylpiperazine derivative] | 3
11 | COC(=O)C1=C(C)NC(C)=C(C(=O)OC)C1c1cccc(NC(=NC#N)NCCNC2CCN(c3ccccc3[N+](=O)[O-])CC2)c1 [N-arylpiperazine derivative] | 4
